From US20240400584A1, “COMPOUNDS AND METHODS FOR MODULATING SPLICING” (REMIX THERAPEUTICS INC., priority 2021, published 2024)

What was measured:
MYB = assay: RT-qPCR splicing assay, MYB AJ/CJ mRNA; format: cell-based; conditions: Homo sapiens, A673 or K562 cells, 24 hours; for IC50: decrease in canonical junction mRNA; for AC50: increase in alternative junction mRNA
In short: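 Splicing switch scored as change in CJ and AJ isoform levels, by RT-qPCR on lysates of A673 or K562 cells dosed 24 h (top concentration 10 uM, DMSO at most 0.25%). ΔΔCt relative to DMSO wells was converted to RQ and then to percentage response.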

[1] = tested on: HiBit-tagged HTT in K562 cells; assay: HiBiT protein abundance assay, HTT; format: cell-based, human; conditions: HiBiT-modified K562 cells, 24 hours, luminescence
Experimental: Compounds described herein were used to screen for effects on quantitative protein abundance using a HiBit assay system (Promega). Quantitative protein abundance was determined by measuring the protein levels of HiBit-tagged protein targets expressed in cell culture via luminescence using the Nano-Glo HiBiT Lytic Detection System, which uses a split complementation assay format to reconstitute NanoBiT enzyme to generate a luminescent signal. A protein abundance assay was developed such that endogenous protein targets could be modified with the HiBiT peptide tag and their abundance could be assessed after compound treatment. Briefly, K562 cell lines containing a HiBiT-modification were treated with various compounds described herein (e.g., compounds of Formulas (I)). After treatment for 24 hours, the protein abundance of a specific target was determined by measuring luminescence.
Cells were maintained in IMDM with 10% FBS. Before the assay, cells were diluted with […] growth media (IMDM+[…] media) and were seeded in a 384-well plate at a density of 10000 cells/well (for each cell line listed in Table 8). Each compound was prepared as a 10-point 3-fold serial dilution in DMSO with the top dose at a final concentration of 10 μM in the well. Unmodified K562 cells were added at the previously specified density with DMSO to serve as an assay baseline and positive control (PC) and DMSO only with the respective modified cell lines was added to the negative control (NC) columns. Final DMSO concentration was kept at or below 0.25% o. Treated cell plates were placed in an incubator at 37° C. with […] for 24 hours. After 24 hours, 25 μL of Complete HiBit Lytic reagent was added to each well at room temperature (e.g. one plate requiring 10 mL Lytic Buffer, 100 μL LgBiT Protein, 200 μL Lytic Substrate), shaken for 5 minutes at 600 RPM, then left to sit for 10 minutes for signal to stabilize before reading on a Spark Cyto plate reader (Tecan) with a 500 ms measurement time.
To determine compound effects on protein abundance of each target in Table 9, the percent response for each respective cell line was calculated at each compound concentration as follows:
For the normalized response at each concentration, a four-parameter logistical regression was fit to the data and the response was interpolated at the […] to determine a concentration for protein abundance at 50% o (IC50) the untreated control.

Compound | IC50 (MYB) | AC50 (MYB) | IC50 [1]
C[C@@H]1C[C@H](N(C)c2ccc3c(c2)OCc2cc(-c4cn[nH]c4)ccc2-3)CCN1 [Compound 101] | > 10 µM | 1 to 10 µM | 1 to 10 µM
C[C@H]1C[C@H](N(C)c2ccc3c(c2)OCc2cc(-c4cn[nH]c4)ccc2-3)CCN1 [Compound 102] | > 10 µM | 1 to 10 µM | 1 to 10 µM
CN(c1ccc2c(c1)OCc1cc(-c3cn[nH]c3)ccc1-2)[C@@H]1C[C@H]2CC[C@@H](C1)N2 [Compound 104] | > 10 µM | > 10 µM | 1 to 10 µM
CN(c1ccc2c(c1)OCc1cc(-n3cccn3)ccc1-2)[C@@H]1C[C@H]2CC[C@@H](C1)N2 [Compound 105] | > 10 µM | > 10 µM | 1 to 10 µM
CN(c1ccc2c(n1)OCc1cc(-c3cn[nH]c3)ccc1-2)[C@@H]1C[C@H]2CC[C@@H](C1)N2 [Compound 108] | 0.1 to 1 µM | 1 to 10 µM | < 0.1 µM
CN(c1ccc2c(c1)CCOc1cc(-n3cccn3)ccc1-2)[C@@H]1C[C@H]2CC[C@@H](C1)N2 [Compound 113] | > 10 µM | > 10 µM | > 10 µM
CN(c1ccc2c(n1)OCc1cc(-c3cn[nH]c3)ccc1-2)C1CCNCC1 [Compound 116] | 1 to 10 µM | 1 to 10 µM | 0.1 to 1 µM
CN(c1ccc2c(c1)COc1cc(-n3cccn3)ccc1-2)C1CC(C)(C)NC(C)(C)C1 [Compound 117] | 1 to 10 µM | > 10 µM | 1 to 10 µM
CC1(C)CC(Nc2ccc3c(c2)COc2cc(-n4cccn4)ccc2-3)CC(C)(C)N1 [Compound 118] | > 10 µM | > 10 µM | 1 to 10 µM
CN(c1ccc2c(n1)COc1cc(-c3cn[nH]c3)ccc1-2)[C@@H]1C[C@H]2CC[C@@H](C1)N2 [Compound 121] | 1 to 10 µM | 1 to 10 µM | < 0.1 µM
CN(c1ccc2c(n1)COc1cc(-n3cccn3)ccc1-2)[C@@H]1C[C@H]2CC[C@@H](C1)N2 [Compound 124] | 1 to 10 µM | > 10 µM | 1 to 10 µM
CN(c1ccc2c(n1)COc1cc(-n3cccn3)ccc1-2)C1CC(C)(C)NC(C)(C)C1 [Compound 125] | > 10 µM | > 10 µM | 1 to 10 µM
CN(c1ccc2c(n1)CCOc1cc(-n3cccn3)ccc1-2)C1CC(C)(C)NC(C)(C)C1 [Compound 129] | > 10 µM | > 10 µM | > 10 µM
CC1(C)CC(Nc2ccc3c(n2)COc2cc(-n4cccn4)ccc2-3)CC(C)(C)N1 [Compound 134] | 1 to 10 µM | > 10 µM | 1 to 10 µM
CN(c1cnc2c(n1)OCc1cc(-c3cn[nH]c3)ccc1-2)C1CC(C)(C)NC(C)(C)C1 [Compound 142] | 0.1 to 1 µM | 1 to 10 µM | 0.1 to 1 µM
c1cc2c(cc1-c1cn[nH]c1)COc1nc(N[C@@H]3C[C@H]4CC[C@@H](C3)N4)cnc1-2 [Compound 143] | 0.1 to 1 µM | 1 to 10 µM | 0.1 to 1 µM
CN(c1cnc2c(n1)OCc1cc(-c3cn[nH]c3)ccc1-2)[C@@H]1C[C@H]2CC[C@@H](C1)N2 [Compound 144] | 0.1 to 1 µM | 0.1 to 1 µM | < 0.1 µM
CN(c1ccc2c(n1)OCCc1cc(-c3cn[nH]c3)ccc1-2)C1CC(C)(C)NC(C)(C)C1 [Compound 145] | 1 to 10 µM | > 10 µM | 1 to 10 µM
CN(c1ccc2c(n1)OCCc1cc(-c3cn[nH]c3)ccc1-2)[C@@H]1C[C@H]2CC[C@@H](C1)N2 [Compound 146] | > 10 µM | > 10 µM | 1 to 10 µM

Compound | IC50 (MYB) | AC50 (MYB) | IC50 [1]
CN(c1ccc2c(n1)OCc1cc(-c3cn[nH]c3)ccc1-2)C1CC(C)(C)NC(C)(C)C1 [Compound 147] | 1 to 10 µM | 1 to 10 µM | 0.1 to 1 µM
CN(c1ccc2c(n1)OCc1cc(-n3cccn3)ccc1-2)C1CC(C)(C)NC(C)(C)C1 [Compound 148] | 1 to 10 µM | 1 to 10 µM | 1 to 10 µM
CN(c1ccc2c(n1)OCc1cc(-n3cccn3)ccc1-2)[C@@H]1C[C@H]2CC[C@@H](C1)N2 [Compound 149] | 0.1 to 1 µM | 0.1 to 1 µM | 0.1 to 1 µM
CN(c1ccc2c(n1)OCc1cc(-n3nccn3)ccc1-2)[C@@H]1C[C@H]2CC[C@@H](C1)N2 [Compound 151] | 0.1 to 1 µM | 0.1 to 1 µM | < 0.1 µM
CN(c1ccc2c(n1)OCc1cc(-n3ccnn3)ccc1-2)[C@@H]1C[C@H]2CC[C@@H](C1)N2 [Compound 152] | 0.1 to 1 µM | 0.1 to 1 µM | < 0.1 µM
CN(c1ccc2c(n1)OCc1cc(-c3ccn(C)c(=O)c3)ccc1-2)[C@@H]1C[C@H]2CC[C@@H](C1)N2 [Compound 153] | 0.1 to 1 µM | < 0.1 µM | < 0.1 µM
Cc1[nH]ncc1-c1ccc2c(c1)COc1nc(N(C)[C@@H]3C[C@H]4CC[C@@H](C3)N4)ccc1-2 [Compound 154] | 0.1 to 1 µM | < 0.1 µM | < 0.1 µM
Cc1ncc(-c2ccc3c(c2)COc2nc(N(C)[C@@H]4C[C@H]5CC[C@@H](C4)N5)ccc2-3)o1 [Compound 155] | 0.1 to 1 µM | 0.1 to 1 µM | < 0.1 µM
COc1cc(-c2ccc3c(c2)COc2nc(N(C)[C@@H]4C[C@H]5CC[C@@H](C4)N5)ccc2-3)ccn1 [Compound 156] | 0.1 to 1 µM | 0.1 to 1 µM | < 0.1 µM
CN(c1ccc2c(n1)OCc1cc(-c3ccc(=O)[nH]c3)ccc1-2)[C@@H]1C[C@H]2CC[C@@H](C1)N2 [Compound 157] | 1 to 10 µM | 1 to 10 µM | 0.1 to 1 µM
CN(c1ccc2c(n1)OCc1cc(-c3ccc(=O)n(C)c3)ccc1-2)[C@@H]1C[C@H]2CC[C@@H](C1)N2 [Compound 158] | 0.1 to 1 µM | 1 to 10 µM | < 0.1 µM
COc1cc(-c2ccc3c(c2)COc2nc(N(C)[C@@H]4C[C@H]5CC[C@@H](C4)N5)ccc2-3)cnn1 [Compound 159] | < 0.1 µM | < 0.1 µM | < 0.1 µM
CN(c1ccc2c(n1)OCc1cc(-c3cnn(C)c(=O)c3)ccc1-2)[C@@H]1C[C@H]2CC[C@@H](C1)N2 [Compound 160] | 0.1 to 1 µM | < 0.1 µM | < 0.1 µM
CN(c1ccc2c(n1)OCc1cc(-c3cnc(=O)[nH]c3)ccc1-2)[C@@H]1C[C@H]2CC[C@@H](C1)N2 [Compound 161] | > 10 µM | > 10 µM | > 10 µM
CN(c1ccc2c(n1)OCc1cc(-c3cc(=O)n(C)cn3)ccc1-2)[C@@H]1C[C@H]2CC[C@@H](C1)N2 [Compound 162] | 0.1 to 1 µM | < 0.1 µM | < 0.1 µM
CN(c1ccc2c(n1)OCc1cc(-n3ccnc3)ccc1-2)[C@@H]1C[C@H]2CC[C@@H](C1)N2 [Compound 163] | 0.1 to 1 µM | < 0.1 µM | < 0.1 µM
Cc1cn(-c2ccc3c(c2)COc2nc(N(C)[C@@H]4C[C@H]5CC[C@@H](C4)N5)ccc2-3)cn1 [Compound 164] | 0.1 to 1 µM | 0.1 to 1 µM | < 0.1 µM
CC1(C)CC(Nc2ccc3c(n2)OCc2cc(-n4cccn4)ccc2-3)CC(C)(C)N1 [Compound 165] | 1 to 10 µM | 0.1 to 1 µM | < 0.1 µM
c1cnn(-c2ccc3c(c2)COc2nc(NC4CNC4)ccc2-3)c1 [Compound 166] | > 10 µM | > 10 µM | 1 to 10 µM
